According to ChEMBL document CHEMBL1127121, “Benzofuran based angiotensin II antagonists related to GR117289: Part III; GR138950, a triflamide with high oral bioavailability” (Bioorg Med Chem Lett, 1993):

Key:
[1] = molecular target: T1, Type-1 angiotensin II receptor (Oryctolagus cuniculus) (UniProt P34976); assay: Affinity for Angiotensin II receptor, type 1 by measuring its ability to antagonise the contractile effect of AngII in rabbit isolated thoracic aorta; type: functional, tissue-based
T1 sequence (whole entry): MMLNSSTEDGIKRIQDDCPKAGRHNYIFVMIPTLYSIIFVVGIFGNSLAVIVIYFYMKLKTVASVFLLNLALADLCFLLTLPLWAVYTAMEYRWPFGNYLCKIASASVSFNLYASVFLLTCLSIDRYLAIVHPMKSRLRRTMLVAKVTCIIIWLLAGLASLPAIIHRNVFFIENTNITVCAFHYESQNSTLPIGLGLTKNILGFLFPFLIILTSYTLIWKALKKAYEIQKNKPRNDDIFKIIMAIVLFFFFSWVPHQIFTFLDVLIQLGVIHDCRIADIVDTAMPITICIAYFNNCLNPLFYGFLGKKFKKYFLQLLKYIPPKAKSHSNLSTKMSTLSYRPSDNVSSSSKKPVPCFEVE

[2] = The compound was evaluated for volume of distribution in rat; type: ADME, organism-based; settings: in vivo
[3] = Bioavailability in rat; type: ADME, organism-based; settings: in vivo
[4] = The compound was evaluated for plasma clearance in rat; type: ADME, organism-based; settings: read-out: Clp
[5] = The compound was evaluated for plasma half life period in rat; type: ADME, organism-based

pKB [1] | Vd [2] | bioavailability [3] | clearance [4] | half-life [5] | Structure (SMILES)
9.5 | – | – | – | – | CCNC(=O)c1c(C)nc(CC)n1Cc1ccc2oc(-c3ccccc3NS(=O)(=O)C(F)(F)F)c(Br)c2c1
9 | 4.3 L/kg | 95% | 42 mL/min/kg | 1.2 h | CCc1nc(C)c(C(=O)NC)n1Cc1ccc2oc(-c3ccccc3NS(=O)(=O)C(F)(F)F)c(Br)c2c1
9 | – | – | – | – | CCc1nc(CC)n(Cc2ccc3oc(-c4ccccc4NS(=O)(=O)C(F)(F)F)c(Br)c3c2)c1C(=O)NC
9.1 | – | – | – | – | CCc1nc(C)c(C(=O)N(C)C)n1Cc1ccc2oc(-c3ccccc3NS(=O)(=O)C(F)(F)F)c(Br)c2c1
8.1 | – | – | – | – | CCc1nc(C(C)C)c(C(=O)NC)n1Cc1ccc2oc(-c3ccccc3NS(=O)(=O)C(F)(F)F)c(Br)c2c1
9.2 | – | – | – | – | CCc1nc(C)c(C(=O)NCC(F)(F)F)n1Cc1ccc2oc(-c3ccccc3NS(=O)(=O)C(F)(F)F)c(Br)c2c1
9.7 | – | – | – | – | CCc1nc(C2CC2)c(C(=O)NC)n1Cc1ccc2oc(-c3ccccc3NS(=O)(=O)C(F)(F)F)c(Br)c2c1
< 8 | – | – | – | – | CCc1nc(CC(C)C)c(C(=O)NC)n1Cc1ccc2oc(-c3ccccc3NS(=O)(=O)C(F)(F)F)c(Br)c2c1
9 | 2.4 L/kg | 79% | 8.9 mL/min/kg | 3.2 h | CCc1nc(C2CC2)c(C(N)=O)n1Cc1ccc2oc(-c3ccccc3NS(=O)(=O)C(F)(F)F)c(Br)c2c1 [SAPRISARTAN]
9 | – | – | – | – | CCc1nc(C)c(C(N)=O)n1Cc1ccc2oc(-c3ccccc3NS(=O)(=O)C(F)(F)F)c(Br)c2c1
– | 0.5 L/kg | 3% | 0.8 mL/min/kg | 8 h | CCCCc1nc(Cl)c(C(=O)O)n1Cc1ccc2oc(-c3ccccc3-c3nn[nH]n3)c(Br)c2c1 [ZOLASARTAN]
